Values quoted from earlier work, collected in patent publication US8420131B2, “Composition for obesity treatment” (priority 2011, dated 2013).

Legend:
[1] = test system: human white preadipocytes
[2] = in vivo
[3] = in vivo; remark: listed apart in the source
[4] = patients with PCOS
[5] = animal study
[6] = humans
[7] = sixty depressed patients, added to imipramine therapy

Compound: COc1ccc2cc3[n+](cc2c1OC)CCc1cc2c(cc1-3)OCO2 [berberine]
- adipogenesis [1]: inhibit adipogenesis

Compound: CC(/C=C/C=C(\C)C(=O)O)=C\C=C\C=C(C)\C=C\C=C(/C)C(=O)O [crocetin]
- inhibition of the effect of lipase (lipase): potently inhibit
- potency compared with orlistat (dose of 50 mg/kg versus orlistat at 10 mg/kg): comparable
- fat deposits (mice fed on a high fat diet): significantly reduced

Compound: CC(/C=C/C=C(\C)C(=O)O[C@@H]1O[C@H](CO[C@@H]2O[C@H](CO)[C@@H](O)[C@H](O)[C@H]2O)[C@@H](O)[C@H](O)[C@H]1O)=C\C=C\C=C(C)\C=C\C=C(/C)C(=O)O[C@@H]1O[C@H](CO[C@@H]2O[C@H](CO)[C@@H](O)[C@H](O)[C@H]2O)[C@@H](O)[C@H](O)[C@H]1O [crocin]
- inhibition of the effect of lipase (lipase): potently inhibit

Compound: O[C@H]1[C@H](O)[C@@H](O)[C@H](O)[C@@H](O)[C@H]1O [inositol]
- decreasing the number of panic attacks, compared with fluvoxamine [2]: superior
- symptoms of depressed patients [3]: significant improvement
- action of insulin / insulin sensitivity [4]: increases the action of insulin

Compound: [Mg+2] [magnesium]
- effect compared with imipramine [5]: comparable
- effectiveness in treating depression compared with imipramine [6]: as effective as imipramine

Compound: [Zn] [zinc]
- depression scores [7]: significantly reduced
